Assay results reported in US20200339625A1, “NOVEL RADIOMETAL-BINDING COMPOUNDS FOR DIAGNOSIS OR TREATMENT OF PROSTATE SPECIFIC MEMBRANE ANTIGEN-EXPRESSING CANCER” (PROVINCIAL HEALTH SERVICES AUTHORITY, priority 2017, published 2020).

Legend:
[1] = biological target: T1, PSMA on LNCaP cells (Homo sapiens, UniProt Q04609); test: In vitro competition binding assay (displacement of 18F-DCFPyL)
T1 construct: endogenous in cells; host or cells: LNCaP prostate cancer cells
Procedure: 1.14 In Vitro Competition Binding Assay
In vitro competition binding assays were conducted as previously reported using LNCaP prostate cancer cells and ^18F-DCFPyL as the radioligand. ^18 Briefly, LNCaP cells (400,000/well) were plated onto a 24-well poly-D-lysine coated plate for 48 h. Growth media was removed and replaced with HEPES buffered saline (50 mM HEPES, pH 7.5, 0.9% sodium chloride) and the cells were incubated for 1 h at 37° C. ^18F-DCFPyL (0.1 nM) was added to each well (in triplicate) containing various concentrations ([…]) of tested compounds (Lu-PSMA-617 or Lu-HTK01169). Non-specific binding was determined in the presence of 10 μM non-radiolabeled DCFPyL. The assay mixtures were further incubated for 1 h at 37° C. with gentle agitation. Then, the buffer and hot ligand were removed, and cells were washed twice with cold HEPES buffered saline. To harvest the cells, 400 μL of 0.25% trypsin solution was added to each well. Radioactivity was measured on a PerkinElmer (Waltham, Mass.) Wizard2 2480 automatic gamma counter. Nonlinear regression analyses and Ki calculations were performed using the GraphPad Prism 7 software.

[2] = tested on: mice bearing PSMA-expressing LNCAP cancer xenografts; test: Biodistribution of 68Ga-labeled compounds; format: in vivo
Method in brief: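 NOD-SCID IL2RγKO male mice carried subcutaneous LNCaP xenografts grown to 5-8 mm over 5-6 weeks. Organs and blood were collected at 1 or 3 h after injection of the radiotracer and gamma-counted. Uptake was normalized to injected dose via a standard curve and expressed as %ID/g.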

[3] = tested on: mice bearing LNCaP tumor xenografts; test: PET/CT imaging of 68Ga-labeled compounds; format: in vivo
Method in brief: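 Male NOD SCID IL2Rγ KO mice bore subcutaneous LNCaP xenografts (1×10^7 cells, tumours 5-8 mm) and received 6-8 MBq tracer via tail vein under 2% isoflurane. At 50 min p.i., a 10-min CT and a 10-min static PET were acquired. For the 3 h time point, scanning began at 170 min p.i. with a 15-min static PET.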

T1 sequence (Q04609 whole entry): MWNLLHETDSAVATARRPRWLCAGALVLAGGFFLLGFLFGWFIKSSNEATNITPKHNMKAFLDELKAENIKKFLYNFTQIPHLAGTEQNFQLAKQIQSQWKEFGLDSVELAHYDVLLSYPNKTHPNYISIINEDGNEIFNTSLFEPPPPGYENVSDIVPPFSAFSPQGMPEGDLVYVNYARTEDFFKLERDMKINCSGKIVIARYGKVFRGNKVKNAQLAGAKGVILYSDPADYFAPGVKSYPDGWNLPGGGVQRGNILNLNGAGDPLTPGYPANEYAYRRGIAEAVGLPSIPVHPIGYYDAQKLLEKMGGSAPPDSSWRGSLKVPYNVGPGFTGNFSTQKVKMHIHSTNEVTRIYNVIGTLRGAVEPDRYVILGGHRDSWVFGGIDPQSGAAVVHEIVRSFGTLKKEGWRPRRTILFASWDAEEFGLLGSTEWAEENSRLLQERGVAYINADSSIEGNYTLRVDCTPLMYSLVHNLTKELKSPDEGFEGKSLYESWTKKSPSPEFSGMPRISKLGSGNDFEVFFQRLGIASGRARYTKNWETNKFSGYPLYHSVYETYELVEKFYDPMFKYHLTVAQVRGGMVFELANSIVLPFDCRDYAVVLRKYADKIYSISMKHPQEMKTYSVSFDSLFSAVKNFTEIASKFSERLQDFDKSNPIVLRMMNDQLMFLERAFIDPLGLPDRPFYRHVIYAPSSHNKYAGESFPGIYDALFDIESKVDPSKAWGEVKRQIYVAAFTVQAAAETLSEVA

**Q.** With O=C([O-])CN1CCN(CC(=O)[O-])CCN(CC(=O)NCCCC[C@H](NC(=O)[C@H](CCC(=O)O)NC(=O)CCCc2ccc(I)cc2)C(=O)NC[C@H]2CC[C@H](C(=O)N[C@@H](Cc3ccc4ccccc4c3)C(=O)NCCCC[C@H](NC(=O)N[C@@H](CCC(=O)O)C(=O)O)C(=O)O)CC2)CCN(CC(=O)[O-])CC1.[Lu+3] [Lu-HTK01169] as the compound, how does the Ki ([1]; inhibition of 18F-DCFPyL binding to PSMA on LNCaP cells, n=3) read?
**A.** The Ki was 40 ± 10 pM.

**Q.** What about the “improvement in PSMA binding compared to Lu-PSMA-617” value ([1]; ratio of Ki values) of the same compound?
**A.** Its value is 6 fold.

**Q.** With COc1ccc(CCCC(=O)NCC(=O)N[C@@H](CCCCNC(=O)CN2CCN(CC(=O)[O-])CCN(CC(=O)[O-])CCN(CC(=O)[O-])CC2)C(=O)NC[C@H]2CC[C@H](C(=O)N[C@@H](Cc3ccc4ccccc4c3)C(=O)NCCCC[C@H](NC(=O)N[C@@H](CCC(=O)O)C(=O)O)C(=O)O)CC2)cc1.[68Ga+3] [^68Ga-HTK03086] as the compound, how does the Adrenal glands uptake ([2]; 1 h post-injection) read?
**A.** The Adrenal glands uptake was 3.28 ± 0.54 % ID/g.

**Q.** And the Blood uptake ([2]; 1 h post-injection)?
**A.** Its Blood uptake is 12.1 ± 0.60 % ID/g.

**Q.** And the Bone uptake ([2]; 1 h post-injection)?
**A.** Its Bone uptake is 0.72 ± 0.19 % ID/g.

**Q.** What about the Brain uptake ([2]; 1 h post-injection) of the same compound?
**A.** Its Brain uptake is 0.15 ± 0.01 % ID/g.

**Q.** What about the Fat uptake ([2]; 1 h post-injection) of the same compound?
**A.** Its Fat uptake is 1.37 ± 0.17 % ID/g.

**Q.** And the Heart uptake ([2]; 1 h post-injection)?
**A.** The Heart uptake was 2.76 ± 0.25 % ID/g.

**Q.** What about the Intestine uptake ([2]; 1 h post-injection) of the same compound?
**A.** The Intestine uptake was 0.91 ± 0.07 % ID/g.

**Q.** And the Kidneys uptake ([2]; 1 h post-injection)?
**A.** Its Kidneys uptake is 54.7 ± 4.84 % ID/g.

**Q.** What about the Lacrimal uptake ([2]; 1 h post-injection) of the same compound?
**A.** Its Lacrimal uptake is 0.24 ± 0.05 % ID/g.

**Q.** What about the Liver uptake ([2]; 1 h post-injection) of the same compound?
**A.** Its Liver uptake is 1.77 ± 0.27 % ID/g.

**Q.** What about the Lungs uptake ([2]; 1 h post-injection) of the same compound?
**A.** Its Lungs uptake is 5.43 ± 0.65 % ID/g.

**Q.** What about the Muscle uptake ([2]; 1 h post-injection) of the same compound?
**A.** The Muscle uptake was 0.94 ± 0.02 % ID/g.

**Q.** What about the Pancreas uptake ([2]; 1 h post-injection) of the same compound?
**A.** The Pancreas uptake was 1.16 ± 0.11 % ID/g.

**Q.** What about the Salivary uptake ([2]; 1 h post-injection) of the same compound?
**A.** The Salivary uptake was 2.51 ± 0.18 % ID/g.

**Q.** What about the Seminal uptake ([2]; 1 h post-injection) of the same compound?
**A.** The Seminal uptake was 0.71 ± 0.10 % ID/g.

**Q.** What about the Spleen uptake ([2]; 1 h post-injection) of the same compound?
**A.** Its Spleen uptake is 2.18 ± 0.51 % ID/g.

**Q.** What about the Stomach uptake ([2]; 1 h post-injection) of the same compound?
**A.** The Stomach uptake was 0.34 ± 0.04 % ID/g.

**Q.** What about the Tail uptake ([2]; 1 h post-injection) of the same compound?
**A.** Its Tail uptake is 3.39 ± 0.59 % ID/g.

**Q.** What about the Testes uptake ([2]; 1 h post-injection) of the same compound?
**A.** Its Testes uptake is 1.54 ± 0.18 % ID/g.

**Q.** What about the Thyroid uptake ([2]; 1 h post-injection) of the same compound?
**A.** Its Thyroid uptake is 2.24 ± 0.15 % ID/g.

**Q.** What about the Tumor uptake ([2]; 1 h post-injection) of the same compound?
**A.** Its Tumor uptake is 17.8 ± 2.89 % ID/g.

**Q.** And the “Tumor:Blood ratio” value ([2]; 1 h post-injection)?
**A.** The value was 1.47 ± 0.28.

**Q.** And the “Tumor:Muscle ratio” value ([2]; 1 h post-injection)?
**A.** The value was 18.8 ± 2.968.

**Q.** And the “Tumor:kidney ratio” value ([2]; 1 h post-injection)?
**A.** Its value is 0.32 ± 0.04.

**Q.** And the Urine uptake ([2]; 1 h post-injection)?
**A.** The Urine uptake was 82.9 ± 62.5 % ID/g.

**Q.** What about the Adrenal glands uptake ([2]; 3 h post-injection) of the same compound?
**A.** Its Adrenal glands uptake is 1.80 ± 0.39 % ID/g.

**Q.** And the Blood uptake ([2]; 3 h post-injection)?
**A.** Its Blood uptake is 6.60 ± 0.84 % ID/g.

**Q.** What about the Bone uptake ([2]; 3 h post-injection) of the same compound?
**A.** Its Bone uptake is 0.33 ± 0.16 % ID/g.

**Q.** What about the Brain uptake ([2]; 3 h post-injection) of the same compound?
**A.** Its Brain uptake is 0.09 ± 0.02 % ID/g.

**Q.** And the Fat uptake ([2]; 3 h post-injection)?
**A.** The Fat uptake was 0.95 ± 0.12 % ID/g.

**Q.** What about the Heart uptake ([2]; 3 h post-injection) of the same compound?
**A.** Its Heart uptake is 1.53 ± 0.21 % ID/g.

**Q.** What about the Intestine uptake ([2]; 3 h post-injection) of the same compound?
**A.** Its Intestine uptake is 0.71 ± 0.07 % ID/g.

**Q.** And the Kidneys uptake ([2]; 3 h post-injection)?
**A.** Its Kidneys uptake is 48.5 ± 10.7 % ID/g.

**Q.** What about the Lacrimal uptake ([2]; 3 h post-injection) of the same compound?
**A.** Its Lacrimal uptake is 0.07 ± 0.04 % ID/g.

**Q.** And the Liver uptake ([2]; 3 h post-injection)?
**A.** Its Liver uptake is 1.40 ± 0.35 % ID/g.

**Q.** And the Lungs uptake ([2]; 3 h post-injection)?
**A.** The Lungs uptake was 3.49 ± 0.64 % ID/g.

**Q.** What about the Muscle uptake ([2]; 3 h post-injection) of the same compound?
**A.** Its Muscle uptake is 0.57 ± 0.09 % ID/g.

**Q.** What about the Pancreas uptake ([2]; 3 h post-injection) of the same compound?
**A.** Its Pancreas uptake is 0.70 ± 0.11 % ID/g.

**Q.** And the Salivary uptake ([2]; 3 h post-injection)?
**A.** Its Salivary uptake is 1.39 ± 0.13 % ID/g.

**Q.** What about the Seminal uptake ([2]; 3 h post-injection) of the same compound?
**A.** Its Seminal uptake is 0.47 ± 0.09 % ID/g.

**Q.** What about the Spleen uptake ([2]; 3 h post-injection) of the same compound?
**A.** The Spleen uptake was 1.58 ± 0.37 % ID/g.

**Q.** And the Stomach uptake ([2]; 3 h post-injection)?
**A.** The Stomach uptake was 0.27 ± 0.08 % ID/g.

**Q.** And the Tail uptake ([2]; 3 h post-injection)?
**A.** Its Tail uptake is 1.50 ± 0.17 % ID/g.

**Q.** And the Testes uptake ([2]; 3 h post-injection)?
**A.** Its Testes uptake is 1.30 ± 0.30 % ID/g.

**Q.** What about the Thyroid uptake ([2]; 3 h post-injection) of the same compound?
**A.** The Thyroid uptake was 1.39 ± 0.16 % ID/g.

**Q.** And the Tumor uptake ([2]; 3 h post-injection)?
**A.** The Tumor uptake was 28.2 ± 5.44 % ID/g.

**Q.** And the “Tumor:Blood ratio” value ([2]; 3 h post-injection)?
**A.** Its value is 4.33 ± 1.06.

**Q.** And the “Tumor:Muscle ratio” value ([2]; 3 h post-injection)?
**A.** The value was 50.5 ± 13.5.

**Q.** What about the “Tumor:kidney ratio” value ([2]; 3 h post-injection) of the same compound?
**A.** The value was 0.59 ± 0.10.

**Q.** What about the Urine uptake ([2]; 3 h post-injection) of the same compound?
**A.** The Urine uptake was 1.30 ± 47.9 % ID/g.

**Q.** What about the “change of tumor uptake from 1 h to 3 h post-injection” value ([3]; PET/CT images) of the same compound?
**A.** Its value is “increases over time”.

**Q.** What about the excretion pathway ([3]; PET/CT images) of the same compound?
**A.** Its excretion pathway is “excreted mainly by the renal pathway”.

**Q.** What about the “blood retention (qualitative)” value ([3]; PET/CT images at 1 h and 3 h post-injection, comparison within the figure) of the same compound?
**A.** Its value is “significantly higher blood retention”.
